{"source": "paper PMC5245897", "about": "(PLoS ONE, 2017)", "origin": "cited, not measured here", "tested_on": "GLP-1 receptor", "set-up": "method as in PMID 8396143", "conditions": "GLP-1 receptor antagonist"}
{"substance": "Exendin(9–39)", "values": [{"measurement": "GLP-1 receptor binding (in words)", "value": "GLP-1 receptor antagonist binding with high affinity"}]}
